Reference: patent US20110214196A1, “DEVELOPMENT OF HERBICIDE-RESISTANT GRASS SPECIES” (University of Georgia Research Foundation, priority 2008, published 2011)

Columns and labels:
[1] = test system: callus tissue generated from the variety 'Seaspray'; experiment: Callus growth dose response to sethoxydim; assay type: cell-based, seashore paspalum (Paspalum vaginatum); details: growth averaged over three consecutive 3-week subcultures
Method: The dose response of paspalum tissue in culture to sethoxydim rate was determined using callus tissue generated from the variety ‘Seaspray’ as a model cultivar. Effect of sethoxydim concentration on callus growth was determined by placing callus tissue from ‘Seaspray’ on MS/B5 medium (Murashige and Skoog. 1962. supra; Gamborg et al. 1968. supra) containing 2 mg/L 2-4,D and one of eight concentrations of sethoxydim. Herbicide rates were replicated 6 times and included concentrations of 0, 2.5, 5, 7.5, 10, 25, 50, and 100 μM sethoxydim. Sethoxydim was diluted in methanol and added after the autoclaved medium was cooled to approximately 55° C. (in order to prevent loss of activity from heat degradation). The medium was protected from photo-degradation by wrapping containers in aluminum foil prior to storage.
To measure callus growth, 0.5 gram of callus tissue was weighed, separated into nine equal pieces and placed in a 3×3 pattern on the solid medium of each plate. Six replicate plates for each of the eight sethoxydim concentrations was distributed on a rack in a growth room in a completely randomized design. At 21 days after plating, the tissue from each plate was weighed and recorded. For subculture, 0.5 gram from each plate was obtained for the next growth period. This process was continued for nine weeks, providing three growth measurements for each plate. […]

[2] = test system: Mauna Kea line regenerated from tissue culture (TCC); experiment: Whole plant greenhouse dose-response, Poast herbicide (Example 9); assay type: in vivo, seashore paspalum (Paspalum vaginatum); details: for injury score: TCC
Description: (§1) A second greenhouse experiment was initiated to evaluate SR plants regenerated from a second sethoxydim-resistant cell line, Line B, for sethoxidim resistance at the whole plant level. In the previous experiment (Example 8), minor injury occurred on Line A at higher concentrations of Segment™ sethoxydim herbicide. These injury symptoms were more indicative of surfactant injury rather than sethoxydim injury. […] Plants were transplanted to Cone-tainers™ measuring 4×14 cm and tapering to 1 cm (Stuewe and Sons Inc., Corvallis, Oreg.) containing a 1:1 mix of Fafard® 3B mix and sand and placed on benches under sodium lights in a greenhouse with a 16-h photoperiod maintained at 27/32° C. day/night for approximately two weeks prior to application of herbicide treatments.
(§2) Each of the four genotypes (Line A, Line B, PT and TCC) were treated with 0, 50, 100, 200, 400, 800, 1600, 3200 and 6400 g ai ha^−1 rates of sethoxydim using Poast™ herbicide (BASF Corp., Florham Park, N.J.). All herbicide rates were applied at a spray volume of 1871 ha^−1 in an experimental spray chamber, and after drying, the plants were returned to the greenhouse bench and maintained under the conditions described above. Visual estimates of crop injury were recorded at 16, 21, and 28 d after treatment (DAT) using a scale of 0 to 100, where 0 equals no injury and 100 equals complete death. The experiment was a four by nine factorial with four genotypes and nine herbicide rates. Treatments were arranged in a randomized complete block design. Four replications were used for all four genotypes. Data were first analyzed using a two-way analysis of variance (SAS, 2008) and subsequently analyzed within herbicide rate. Differences among genotype means at each herbicide rate were determined using Fisher's Least Significant Difference (LSD).

[3] = test system: original parental line, Mauna Kea (PT); experiment: as above; assay type: in vivo, seashore paspalum (Paspalum vaginatum)
Description: as §1, §2

[4] = test system: sethoxydim-resistant Line A; experiment: as above; assay type: in vivo, seashore paspalum (Paspalum vaginatum)
Description: as §1, §2

[5] = test system: sethoxydim-resistant Line B; experiment: as above; assay type: in vivo, seashore paspalum (Paspalum vaginatum)
Description: as §1, §2

[6] = test system: Large crabgrass (Digitaria sanguinalis); experiment: Large crabgrass dose response study, plants from sod farm seed; assay type: in vivo
Method: (§3) Plants were grown from seed collected from a turfgrass sod farm near where sethoxydim had been continuously used for twelve years. Seeds were planted in 250 mL styrofoam cups with a potting mixture of pure sand in a glasshouse with supplemental lighting (300 uE/m2/s) and 30/25 temperature. Plants were watered once daily and fertilized once a week. Large crabgrass plants were treated with herbicides when 3-5 cm tall in a dose response study. Four herbicides (sethoxydim, fluazifop, clethodim, and pinoxaden) were applied at […]. Plant injury was observed 7 and 14 DAT. The experimental design consisted of a randomized complete block design with three replications. The experiment was replicated in time.

[7] = test system: Large crabgrass (Digitaria sanguinalis) F2; experiment: Large crabgrass dose response study, F2 from self-pollinated surviving plants; assay type: in vivo
Method: as §3
In response to all four herbicides, the plants initially illutrated typical ACCase symptomology, but recovered in 7-14 days after treatment (DAT). […] Seeds from self-pollinated surviving large crabgrass plants were collected and analyzed using the same dose response design as state before. […] The ED50 was approximately 10 times greater for the resistant (R) population than that for the wild type (S) population.

bermudagrass = experiment: Controlling weedy species in a plot of bermudagrass and sethoxydim-resistant seashore paspalum; assay type: in vivo
Method: A plot containing both bermudagrass and sethoxydim-resistant seashore paspalum is treated with 150 g a.i. ha^−1 sethoxydim once a week over a period of three months. Over the three month treatment period, it is observed that the bermudagrass slowly dies out while the sethoxydim-resistant paspalum continues to thrive, leaving the plot populated with above 80% sethoxydim-resistant paspalum.
A plot containing both bermudagrass and sethoxydim-resistant seashore paspalum is treated with both 150 g a.i. ha^−1 sethoxydim and 150 g a.i. ha^−1 fenoxaprop once a week over a period of three months. Over the three month treatment period, it is observed that the bermudagrass slowly dies out while the sethoxydim-resistant paspalum continues to thrive, leaving the plot populated with above 80% sethoxydim-resistant paspalum.

[8] = at rates of 400 g ai ha^−1, scale of 0 to 100
[9] = at rates of 1600 g ai ha^−1 or more
[10] = all rates up to 6400 g ai ha^−1

CCC/C(=N\OCC)C1=C(O)CC(CC(C)SCC)CC1=O (centres unmarked) [sethoxydim, 2-[1-(ethoxyimino)-butyl]-5-[2-(ethylthio)propyl]-3-hydroxy-2-cylohexen-1-one]
lowest herbicide rate to totally inhibit callus growth [1]: 7.5 µM | LD50 ([2]; TC): 782 g ai ha^−1 | injury score [2, 8]: ≥ 27 | injury score [2, 9]: ≥ 80% | LD50 [3]: 720 g ai ha^−1 | injury score [3, 8]: ≥ 27 | injury score [3, 9]: ≥ 80% | LD50 [4]: > 6400 g ai ha^−1 | maximum injury score observed [4, 10]: less than 20% | LD50 [5]: > 6400 g ai ha^−1 | maximum injury score observed [5, 10]: less than 20% | resistance or susceptibility of this population of large crabgrass ([6]; conclusion from ED50 values): resistant | ED50 of resistant (R) population relative to wild type (S) population ([6]; crabgrass, FIG. 17): approximately 10 times | effective dose required to cause 50% injury (ED50) ([6]; large crabgrass grown from sod farm seed, treated when 3-5 cm tall): 245±37 g ai/ha | effective dose required to cause 50% injury (ED50) [7]: 179±4 g ai/ha | plot populated with sethoxydim-resistant paspalum; bermudagrass slowly dies out (bermudagrass; 150 g a.i. ha^−1 sethoxydim and 150 g a.i. ha^−1 fenoxaprop once a week over three months): above 80% | plot populated with sethoxydim-resistant paspalum; bermudagrass slowly dies out (bermudagrass; 150 g a.i. ha^−1 sethoxydim once a week over three months): above 80%
